Target: Endothelial PAS domain-containing protein 1 (Homo sapiens, UniProt Q99814)
Experiment: Scintillation Proximal Assay (SPA)
Description: Compounds (tested using a 14-point dose response with 3-fold compound dilutions from 100 μM to 60 pM) were pre-incubated for 30 min with HIF2α PAS-B domain (236-350, biotinylated on the N-terminus), before addition of the radio-ligand. […] Duplicates were made using 2 different plates, and mean IC50 values were determined using the Helios system based on the following equation: % inhibition=[(high control−sample)/(high control−low control)]×100. The IC50 values in the Tabulated HIF2α activities are the average from 1 to 10 independent experiments.

Chain of Endothelial PAS domain-containing protein 1 (Q99814 whole entry, the tested form may be a part): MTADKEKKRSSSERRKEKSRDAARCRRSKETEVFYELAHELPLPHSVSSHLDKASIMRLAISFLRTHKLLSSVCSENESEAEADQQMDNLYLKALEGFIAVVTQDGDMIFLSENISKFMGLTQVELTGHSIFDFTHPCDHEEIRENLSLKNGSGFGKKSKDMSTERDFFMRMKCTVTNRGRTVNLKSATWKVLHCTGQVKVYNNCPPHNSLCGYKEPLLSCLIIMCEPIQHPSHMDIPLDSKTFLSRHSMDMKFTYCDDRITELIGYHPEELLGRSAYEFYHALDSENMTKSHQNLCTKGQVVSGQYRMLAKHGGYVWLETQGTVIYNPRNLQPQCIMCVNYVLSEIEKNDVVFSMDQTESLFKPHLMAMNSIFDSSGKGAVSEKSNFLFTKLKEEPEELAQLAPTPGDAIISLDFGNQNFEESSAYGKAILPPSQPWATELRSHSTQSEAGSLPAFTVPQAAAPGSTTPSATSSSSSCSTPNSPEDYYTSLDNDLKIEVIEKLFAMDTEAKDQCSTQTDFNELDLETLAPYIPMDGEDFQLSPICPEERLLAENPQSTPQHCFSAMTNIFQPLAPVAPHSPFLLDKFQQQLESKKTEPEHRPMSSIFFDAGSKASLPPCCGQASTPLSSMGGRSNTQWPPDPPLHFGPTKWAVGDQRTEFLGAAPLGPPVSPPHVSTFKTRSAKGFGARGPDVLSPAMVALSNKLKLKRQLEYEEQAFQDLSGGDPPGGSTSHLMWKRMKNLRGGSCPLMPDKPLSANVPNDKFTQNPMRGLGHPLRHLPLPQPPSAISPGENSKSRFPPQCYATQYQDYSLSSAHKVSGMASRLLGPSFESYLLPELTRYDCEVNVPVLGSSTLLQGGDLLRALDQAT

IC50: 8 nM
SMILES: FC(F)OC1=CC(C(F)(F)F)=CN2C[C@@]3(CCc4cc(C(F)(F)F)ccc43)N=C12 [US12226405, Example 6]
